Measurements published in US6352958B1, “Cycloimido-substituted benzofused heterocyclic herbicides” (FMC Corporation, priority 1997, dated 2002).

Tests used:
[1] = test system: soybean (Glycine max var. Winchester); test: Postemergence herbicidal activity, soybean; format: in vivo; settings: Glycine max, post-emergence, rate of application 0.3 Kg/Ha, rated after 12-17 days, read-out: Postemergence herbicidal activity (% control) SOY
[2] = test system: field corn (Zea mays var. Pioneer 3732); test: Postemergence herbicidal activity, corn; format: in vivo; settings: Zea mays, post-emergence, rate of application 0.3 Kg/Ha, rated after 12-17 days, read-out: Postemergence herbicidal activity (% control) CRN
[3] = test system: soybean (Glycine max var. Winchester); test: Preemergence herbicidal activity, soybean; format: in vivo; settings: Glycine max, pre-emergence, Rate of Application 0.3 Kg/Ha, examined after 12-17 days, read-out: PREEMERGENCE HERBICIDAL ACTIVITY (% CONTROL) SOY
[4] = test system: common cocklebur (Xanthium strumarium L.); test: Postemergence herbicidal activity, cocklebur; format: in vivo; settings: Xanthium strumarium, post-emergence, rate of application 0.3 Kg/Ha, rated after 12-17 days, read-out: Postemergence herbicidal activity (% control) XANPE
[5] = test system: common cocklebur (Xanthium strumarium L.); test: Preemergence herbicidal activity, cocklebur; format: in vivo; settings: Xanthium strumarium, pre-emergence, Rate of Application 0.3 Kg/Ha, examined after 12-17 days, read-out: PREEMERGENCE HERBICIDAL ACTIVITY (% CONTROL) XANPE
[6] = test system: velvetleaf (Abutilon theophrasti); test: Postemergence herbicidal activity, velvetleaf; format: in vivo; settings: Abutilon theophrasti, post-emergence, rate of application 0.3 Kg/Ha, rated after 12-17 days, read-out: Postemergence herbicidal activity (% control) ABUTH

Row | Compound | inhibition at 300 g/ha [1] | inhibition at 300 g/ha [2] | inhibition at 300 g/ha [3] | inhibition at 300 g/ha [4] | inhibition at 300 g/ha [5] | inhibition at 300 g/ha [6] | melting point
1 | CC(C)c1nc2c(-n3c(=O)cc(C(F)(F)F)n(C)c3=O)c(F)cc(Cl)c2o1 [Compound 28, 1-METHYL-6-TRIFLUOROMETHYL-3-[7-CHLORO-5-FLUORO-2-(1-METHYLETHYL)BENZOXAZOL4-YL]-2,4(1H,3H)-PYRIMIDINEDIONE] | 100% | 80% | 100% | 90% | 100% | 100% | –
2 | CCc1nc2c(-n3c(=O)cc(C(F)(F)F)n(C)c3=O)c(F)cc(Cl)c2[nH]1 [Compound 367, 3-(4-CHLORO-2-ETHYL-6-FLUOROBENZIMIDAZOL-7-YL)-1-METHYL-6-TRIFLUOROMETHYL-2,4(1H,3H)-PYRIMIDINEDIONE] | 100% | 100% | 100% | 100% | 100% | 100% | 150 to 155 °C
3 | Cn1c(C(F)(F)F)cc(=O)n(-c2c(F)cc(Cl)c3[nH]c(C(F)(F)F)cc23)c1=O [Compound 500, 3-(7-CHLORO-5-FLUORO-2-TRIFLUOROMETHYLINDOL-4-YL)-1-METHYL-6-TRIFLUOROMETHYL-2,4(1H,3H)-PYRIMIDINEDIONE] | 95% | 95% | 95% | 100% | 100% | 100% | 208 to 210 °C
